Data published in patent US20110059953A1, “COMPOUNDS FOR USE IN STABILIZING P53 MUTANTS” (priority 2008, published 2011).

Biological target: T1, T-p53C-Y220C (Homo sapiens, UniProt P04637, M133L/N239Y/N268D/V203A/Y220C)
T1 construct: For all other experiments, the DNA coding for residues 94-312 of T-p53C was inserted into a modified pET24a(+) vector; 6xHis tag + B. stearothermophilus dihydrolipoyl acetyltransferase lipoyl domain (aa 1-85) + TEV site (N, cleaved yes); made in house; host or cells: Escherichia coli BL21 (DE3) or C41 (DE3)
Test: Thermal denaturation using fluorescence (Sypro Orange)
Assay type: binding
Conditions: further compounds; 10 μM protein
Description: This was by an adaption of the classical procedure (e.g. ref A6). Thermal unfolding was monitored by the binding of the dye Sypro Orange (5×) using a Rotor-gene 6000 (Corbett Life Science) at 270 K/h in 25 mM NaPi, 150 mM NaCl and 5 mM DTT, pH 7.2 with a protein concentration of 10 μM.
(§1) Where listed, S.E. is the calculated standard error.
as §1

In order of rising “ΔTm (° C.)” value:
1. [2H]C(=O)OC(C)C(=O)NC(N)=O (stereo not shown) [PK263]  0.06 °C
2. CCn1c2ccccc2c2cc(CN3CCN(Cc4ccccc4C(F)(F)F)CC3)ccc21 [PK197]  0.08 °C
3. CCn1c2ccccc2c2cc(NC(=O)CCCC(=O)O)ccc21 [PK135]  0.083 °C
4. CCn1cc(C(=O)NC(c2cccc(F)c2)c2nccn2C)c2ccccc21 (stereo not shown) [PK317]  0.09 °C
5. Cn1cc(NN)c2ccccc21 [PK253]  0.093 °C
6. [2H]C(=O)OCC(=O)NC(=O)NCC=C [PK256]  0.1 °C
7. [2H]C(=O)OCC(=O)NCC(F)(F)F [PK258]  0.1 °C
8. CCn1cc(C(=O)OC(C)C(=O)Nc2cc(C)on2)c2ccccc21 (stereo not shown) [PK270]  0.11 °C
9. CCn1c2ccccc2c2cc(CN(C)c3ccc4nnnn4n3)ccc21 [PK157]  0.12 °C
10. CCn1cc(C(=O)Nc2ccn(C)n2)c2ccccc21 [PK318]  0.12 °C
11. CCn1cc(C2CC3CN(C)C(=O)C34CCCN24)c2ccccc21 (stereo not shown) [PK222]  0.14 °C
12. CCn1c2ccccc2c2cc(NC(=O)CN3CCC(C(N)=O)CC3)ccc21 [PK151]  0.14 °C
13. CCOC(=O)c1c(C)n(C)c2ccc(OCCN(C)C)cc12 [PK250]  0.14 °C
14. CCn1c2ccccc2c2cc(NC(=O)C(C)OC(=O)c3n[nH]c(=O)c4ccccc34)ccc21 (stereo not shown) [PK133]  0.145 °C
15. CCn1cc(C(=O)NCc2cccc(NC(=O)C3CC3)c2)c2ccccc21 [PK312]  0.15 °C
16. [2H]C(=O)OCC(=O)NC(=O)NC1CCCC1 [PK269]  0.15 °C
17. CCn1c2ccccc2c2cc(CN3CCOCC3)ccc21 [PK190]  0.15 °C
18. [2H]C(=O)Nc1ccc(OC)c(S(N)(=O)=O)c1 [PK292]  0.154 °C
19. CCn1c2ccccc2c2cc(NC(=O)C3=COCCO3)ccc21 [PK153]  0.16 °C
20. CCn1cc(C(=O)O)c2ccccc21 [PK242]  0.16 °C
21. CCn1cc(C(=O)NCc2cccc(NC(=O)c3ccco3)c2)c2ccccc21 [PK314]  0.16 °C
22. CCn1c2ccccc2c2cc(CN3CCN(Cc4cc(OC)ccc4O)CC3)ccc21 [PK202]  0.17 °C
23. CCn1c2ccccc2c2cc(CN3CCN(S(=O)(=O)c4ccccc4)CC3)ccc21 [PK215]  0.17 °C
24. CCn1c2ccccc2c2cc(CN(C)CC(O)c3ccccc3)ccc21 (stereo not shown) [PK186]  0.18 °C
25. [2H]C(=O)OCC(=O)NC(=O)NCC [PK266]  0.18 °C
26. CCn1c(C)c(C(=O)NCCN(C)C)c2cc(OC)ccc21 [PK402]  0.19 °C
27. [2H]C(=O)OCC(=O)Nc1cc(C)on1 [PK264]  0.19 °C
28. [2H]C(=O)N1CCN(c2ncccn2)CC1 [PK283]  0.19 °C
29. CCn1c2ccccc2c2cc(NC(=O)COc3ccc(S(=O)(=O)N4CCOCC4)cc3)ccc21 [PK094]  0.195 °C
30. Cc1c(C=O)c2ccccc2n1C [PK243]  0.2 °C
31. CCn1cc(C=C(C#N)C#N)c2ccccc21 [PK238]  0.2 °C
32. CCn1cc(C=C(C#N)C(N)=O)c2ccccc21 [PK240]  0.2 °C
33. CCn1cc(C(=O)Nc2ccc(OC)cc2)c2ccccc21 [PK237]  0.2 °C
34. CCn1c2ccccc2c2cc(NC(=O)CO)ccc21 [PK132]  0.2 °C
35. CCOC(=O)c1c(C)n(C)c2ccc(O)cc12 [PK241]  0.2 °C
36. CCn1c2ccccc2c2cc(CN3CCN(C)CC3)ccc21 [PK177]  0.2 °C
37. [2H]C(=O)N1CCN(Cc2ccccc2)CC1 [PK285]  0.2 °C
38. CCOC(=O)c1c(C)n(CC)c2cc(Br)c(OC)cc12 [PK248]  0.21 °C
39. [2H]C(=O)OC(CC)C(=O)Nc1cc(C)on1 (stereo not shown) [PK284]  0.23 °C
40. CCCN1CCN(CC(=O)Nc2ccc3c(c2)c2ccccc2n3CC)CC1 [PK126]  0.23 °C
41. CCn1c2ccccc2c2cc(NC(=O)CN3C(=O)NC4(CCCCC4)C3=O)ccc21 [PK165]  0.24 °C
42. CCn1c2ccccc2c2cc(NC(=O)CN3CCOCC3)ccc21 [PK128]  0.24 °C
43. CCn1cc(C(=O)OCC(=O)c2ccc[nH]2)c2ccccc21 [PK279]  0.24 °C
44. [2H]C(=O)OC(C)c1nc(N)nc(N(C)C)n1 (stereo not shown) [PK286]  0.24 °C
45. [2H]C(=O)Nc1ccc(N2CCN(C)CC2)cc1C [PK295]  0.244 °C
46. CCn1cc(C(=O)NCc2cccc(NC(=O)C3CC3)c2)c2ccccc21 [PK307]  0.26 °C
47. CCCn1cc(CCN)c2cc(OCC)ccc21 [PK408]  0.26 °C
48. CCn1cc(C(=O)NCc2cccc(S(=O)(=O)N3CCOCC3)c2)c2ccccc21 [PK306]  0.26 °C
49. [2H]NNS(=O)(=O)c1cccc(C(F)(F)F)c1 [PK255]  0.26 °C
50. CCn1c2ccccc2c2cc(NC(=O)COc3ccc([N+](=O)[O-])nc3)ccc21 [PK163]  0.27 °C
51. CCn1cc(C(=O)Nc2c(C)nn(C)c2C)c2ccccc21 [PK313]  0.28 °C
52. CCn1cc(C(=O)OCC(=O)NC(=O)NCc2ccco2)c2ccccc21 [PK273]  0.28 °C
53. CCn1c2ccccc2c2cc(NC(=O)COC(=O)Cn3nc(C)c([N+](=O)[O-])c3C)ccc21 [PK118]  0.28 °C
54. CNCc1ccc2c(c1)c1ccccc1n2CCS [PK234]  0.28 °C
55. COc1ccc2c(c1)c(C(=O)NCCc1ccccn1)c(C)n2C1CC1 [PK276]  0.29 °C
56. [2H]C(=O)N(C)Cc1nc2ccccc2c(=O)[nH]1 [PK315]  0.29 °C
57. CCn1cc(C(=O)OCCOc2ccccc2C(C)=O)c2ccccc21 [PK309]  0.29 °C
58. CCOc1ccc2c(c1)c(CCN)cn2CC [PK407]  0.29 °C
59. CCn1c(-c2cn(CC)c3ccccc23)n[nH]c1=S [PK236]  0.3 °C
60. CCn1cc(C(=O)OCc2nc(N)nc(Nc3ccccc3)n2)c2ccccc21 [PK301]  0.3 °C
61. CCn1c2ccccc2c2cc(CN3CCCC(C4NC(=O)NC4C)C3)ccc21 (stereo not shown) [PK218]  0.31 °C
62. [2H]C(=O)OCC(=O)NC(=O)NC [PK268]  0.31 °C
63. CCOC(=O)c1c(C)n(CC)c2ccc(OC(=O)Nc3ccc(Cl)cc3)cc12 [PK246]  0.31 °C
64. CCn1c2ccccc2c2cc(NC(=O)COC(=O)CNC(=O)c3ccc([N+](=O)[O-])cc3)ccc21 [PK108]  0.335 °C
65. COc1ccc2c(c1)c(C(=O)NC(C)C(C)C)c(C)n2C1CC1 (stereo not shown) [PK277]  0.34 °C
66. CCn1c2ccccc2c2cc(CNCCN3CCOCC3)ccc21 [PK208]  0.35 °C
67. COc1ccc2c(c1)c(C(=O)OCC(=O)Nc1cc(F)ccc1F)c(C)n2C1CC1 [PK310]  0.36 °C
68. CCOC(=O)/C=C/C(=O)OCC(=O)Nc1ccc2c(c1)c1ccccc1n2CC [PK113]  0.36 °C
69. CCn1c2ccccc2c2cc(NC(=O)CN3C(=O)NC4(CCCC4)C3=O)ccc21 [PK116]  0.365 °C
70. [2H]C(=O)N1CCc2[nH]c3ccccc3c2C1 [PK293]  0.3741 °C
71. CCn1cc(C(=O)CN2CCc3ccccc3C2)c2ccccc21 [PK212]  0.387 °C
72. CNCc1ccc2c(c1)c1ccccc1n2CCBr [PK232]  0.39 °C
73. CCn1c2ccccc2c2cc(CN3CCCN(C)CC3)ccc21 [PK175]  0.395 °C
74. CCn1cc(C(=O)OC)c2ccccc21 [PK339]  0.4 °C
75. CCn1c2ccccc2c2cc(CNCC(F)(F)F)ccc21 [PK230]  0.4 °C
76. CCn1c2ccccc2c2cc(CNCCSc3nnnn3C)ccc21 [PK390]  0.41 °C
77. [2H]C(=O)Nc1cc(S(=O)(=O)N2CCN(C)CC2)ccc1OC [PK280]  0.42 °C
78. [2H]NNS(=O)(=O)c1ccc(OC(F)(F)F)cc1 [PK254]  0.43 °C
79. [2H]NNS(=O)(=O)c1ccc(C(=O)OC)cc1 [PK281]  0.43 °C
80. CCn1cc(C(=O)Nc2cccc(S(=O)(=O)N(C)C)c2)c2ccccc21 [PK272]  0.44 °C
81. CCn1c2ccccc2c2cc(CN3CCc4ccccc4C3)ccc21 [PK176]  0.455 °C
82. CCn1c2ccccc2c2cc(CNCC(C)O)ccc21 (stereo not shown) [PK391]  0.66 °C
83. CCn1c2ccccc2c2cc(CNCCNCCO)ccc21 [PK392]  0.70 °C
84. CNCc1ccc2c(c1)c1ccccc1n2CCCl [PK229]  0.7 °C

Same assay, conditions: further studies on compounds described above; 10 μM protein

In the case of `CCn1c2ccccc2c2cc(NC(=O)COc3ccc([N+](=O)[O-])nc3)ccc21` [PK163], the “ΔTm (° C.)” value is reported as 0.24 °C.
